In patent US20170253601A1, “Substituted Pyrrolidine Compounds” (EPIZYME, INC., priority 2014, published 2017):

These molecules were tested against T1, SMYD2 (Homo sapiens, UniProt Q9NRG4) (assay: SMYD2 Biochemical Assay (3H-SAM, biotinylated peptide substrate, Flashplate)). Conditions: IC50 values are an average of n = 1 to n = 50; read-out: SMYD2 Biochem IC50 (μM)*.
T1 construct: Full length SMYD2 (NP 064582.2) was cloned; His6 (N, cleaved yes); FLAG (N); made in house; host or cells: Sf9 insect cells
Summary of the method: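 Methyltransferase activity tracked as 3H transfer from 10 nM 3H-SAM to 60 nM biotinylated peptide, counted after streptavidin Flashplate capture and normalised to DMSO and 1000 uM SAH controls. Enzyme: 1.5 nM full-length Sf9-expressed SMYD2, 30 min compound pre-incubation at room temperature, in Bicine pH 7.6 buffer with 2% DMSO; reactions quenched with 600 uM unlabelled SAM; IC50 from 3- or 4-parameter fit.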

T1 sequence (Q9NRG4 whole entry): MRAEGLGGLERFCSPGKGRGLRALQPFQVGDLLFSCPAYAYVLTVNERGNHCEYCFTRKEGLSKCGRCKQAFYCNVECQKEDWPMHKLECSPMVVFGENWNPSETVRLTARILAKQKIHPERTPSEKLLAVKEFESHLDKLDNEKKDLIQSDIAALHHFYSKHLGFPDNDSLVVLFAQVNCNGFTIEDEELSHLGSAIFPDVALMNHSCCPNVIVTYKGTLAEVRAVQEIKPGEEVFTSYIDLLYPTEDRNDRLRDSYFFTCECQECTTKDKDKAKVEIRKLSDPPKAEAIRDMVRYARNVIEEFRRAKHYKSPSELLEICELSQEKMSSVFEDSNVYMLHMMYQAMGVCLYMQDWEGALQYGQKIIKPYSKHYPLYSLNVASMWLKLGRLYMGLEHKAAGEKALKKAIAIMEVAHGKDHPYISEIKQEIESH

SMILES	IC50
CN1C[C@H](NC(=O)c2cc(C3CC3)on2)[C@@H](C2CC2)C1 (racemic) [compound 141, (±)-trans-5-cyclopropyl-N-[4-cyclopropyl-1-methylpyrrolidin-3-yl]-1,2-oxazole-3-carboxamide]	> 50 µM
C[C@@H]1CN(Cc2ccccc2Cl)C[C@H]1NC(=O)c1cc(C2CC2)on1 (racemic) [compound 142, (±)-trans-N-1-[(2-chlorophenyl)methyl]-4-methylpyrrolidin-3-yl]-5-cyclopropyl-1,2-oxazole-3-carboxamide]	27.5 µM
CC(C)CCN1C[C@@H](C)[C@H](NC(=O)c2cc(C3CC3)on2)C1 (racemic) [compound 143, (±)-trans-5-cyclopropyl-N-[4-methyl-1-(3-methylbutyl)pyrrolidin-3-yl]-1,2-oxazole-3-carboxamide]	> 50 µM
CN1C[C@H](NC(=O)c2cc(C3CC3)on2)[C@@H](C(C)(C)C)C1 (racemic) [compound 144, (±)-trans-N-[4-tert-butyl-1-methylpyrrolidin-3-yl]-5-cyclopropyl-1,2-oxazole-3-carboxamide]	> 50 µM
CC(C)N1C[C@H](NC(=O)c2cc(C3CC3)on2)[C@@H](C(C)(C)C)C1 (racemic) [compound 146, (±)-trans-N-[4-tert-butyl-1-(propan-2-yl)pyrrolidin-3-yl]-5-cyclopropyl-1,2-oxazole-3-carboxamide]	> 50 µM
C[C@@H]1CN(Cc2ccc(N(C)C)cc2)C[C@H]1NC(=O)c1cc(C2CC2)on1 (racemic) [compound 148, (±)-trans-5-cyclopropyl-N-[1-{[4-(dimethyl-amino)phenyl]methyl}-4-methylpyrrolidin-3-yl]-1,2-oxazole-3-carboxamide]	37 µM
COc1ccc(CN2C[C@@H](C)[C@H](NC(=O)c3cc(C4CC4)on3)C2)cc1 (racemic) [compound 149, (±)-trans-5-cyclopropyl-N-[1-[(4-methoxy-phenyl)methyl]-4-methylpyrrolidin-3-yl]-1,2-oxazole-3-carboxamide]	45.6 µM
CCC[C@H]1CN(C)C[C@@H]1NC(=O)c1cc(C2CC2)on1 (racemic) [compound 150, (±)-trans-5-cyclopropyl-N-[1-methyl-4-propylpyrrolidin-3-yl]-1,2-oxazole-3-carboxamide]	44.9 µM
CCC[C@H]1CN(C(C)C)C[C@@H]1NC(=O)c1cc(C2CC2)on1 (racemic) [compound 151, (±)-trans-5-cyclopropyl-N-[1-(propan-2-yl)-4-propylpyrrolidin-3-yl]-1,2-oxazole-3-carboxamide]	> 50 µM
C[C@@H]1CN(Cc2cc3ccccc3s2)C[C@H]1NC(=O)c1cc(C2CC2)on1 (racemic) [compound 152, (±)-trans-N-[1-(1-benzothiophen-2-ylmethyl)-4-methyl-pyrrolidin-3-yl]-5-cyclopropyl-1,2-oxazole-3-carboxamide]	> 50 µM
CC(C)C[C@H]1CN(C)C[C@@H]1NC(=O)c1cc(C2CC2)on1 (racemic) [compound 153, (±)-trans-5-cyclopropyl-N-[1-methyl-4-(2-methylpropyl)pyrrolidin-3-yl]-1,2-oxazole-3-carboxamide]	39.1 µM
CC(C)C[C@H]1CN(C(C)C)C[C@@H]1NC(=O)c1cc(C2CC2)on1 (racemic) [compound 154, (±)-trans-5-cyclopropyl-N-[4-(2-methylpropyl)-1-(propan-2-yl)pyrrolidin-3-yl]-1,2-oxazole-3-carboxamide]	> 50 µM
C[C@H]1CN(CC2CCOC2)C[C@H]1NC(=O)c1cc(C2CC2)on1 (mixture of isomers) [compound 155, (±)-cis-5-cyclopropyl-N-[4-methyl-1-(oxolan-3-ylmethyl)pyrrolidin-3-yl]-1,2-oxazole-3-carboxamide]	4.49 µM
C[C@@H]1CN(CC2CCC2)C[C@H]1NC(=O)c1cc(C2CC2)on1 (racemic) [compound 156, (±)-trans-N-[1-(cyclobutyl-methyl)-4-methylpyrrolidin-3-yl]-5-cyclopropyl-1,2-oxazole-3-carboxamide]	> 50 µM
CC[C@H]1CN(C)C[C@@H]1NC(=O)c1cc(C2CC2)on1 (racemic) [compound 157, (±)-trans-5-cyclopropyl-N-[4-ethyl-1-methyl-pyrrolidin-3-yl]-1,2-oxazole-3-carboxamide]	45.3 µM
C[C@@H]1CN(CC2CCN(C)CC2)C[C@H]1NC(=O)c1cc(C2CC2)on1 (racemic) [compound 158, (±)-trans-5-cyclopropyl-N-[4-methyl-1-[(1-methylpiperidin-4-yl)methyl]pyrrolidin-3-yl]-1,2-oxazole-3-carboxamide]	> 50 µM
C[C@@H]1CN(Cc2ccnc3ccccc23)C[C@H]1NC(=O)c1cc(C2CC2)on1 (racemic) [compound 159, (±)-trans-5-cyclopropyl-N-[4-methyl-1-(quinolin-4-ylmethyl)pyrrolidin-3-yl]-1,2-oxazole-3-carboxamide]	> 50 µM

SMILES	IC50
C[C@@H]1CN(Cc2c[nH]c3ccccc23)C[C@H]1NC(=O)c1cc(C2CC2)on1 (racemic) [compound 160, (±)-trans-5-cyclopropyl-N-[1-(1H-indol-3-ylmethyl)-4-methyl-pyrrolidin-3-yl]-1,2-oxazole-3-carboxamide]	> 50 µM
C[C@@H]1CN(CC2CCNC2)C[C@H]1NC(=O)c1cc(C2CC2)on1 (mixture of isomers) [compound 161, (±)-trans-5-cyclopropyl-N-[4-methyl-1-(pyrrolidin-3-ylmethyl)pyrrolidin-3-yl]-1,2-oxazole-3-carboxamide]	> 50 µM
C[C@H]1CN(CC2CC2)C[C@H]1NC(=O)c1cc(C2CC2)on1 (racemic) [compound 162, (±)-cis-5-cyclopropyl-N-[1-(cyclopropylmethyl)-4-methylpyrrolidin-3-yl]-1,2-oxazole-3-carboxamide]	1.42 µM
C[C@H]1CN(CC2CCNC2)C[C@H]1NC(=O)c1cc(C2CC2)on1 (mixture of isomers) [compound 163, (±)-cis-5-cyclopropyl-N-[4-methyl-1-(pyrrolidin-3-ylmethyl)pyrrolidin-3-yl]-1,2-oxazole-3-carboxamide]	> 50 µM
C[C@H]1CN(CC2CCNCC2)C[C@H]1NC(=O)c1cc(C2CC2)on1 (racemic) [compound 164, (±)-cis-5-cyclopropyl-N-[4-methyl-1-(piperidin-4-ylmethyl)pyrrolidin-3-yl]-1,2-oxazole-3-carboxamide]	4.78 µM
C[C@H]1CN(CC(C)(C)C)C[C@H]1NC(=O)c1cc(C2CC2)on1 (racemic) [compound 165, (±)-cis-5-cyclopropyl-N-[1-(2,2-dimethyl-propyl)-4-methylpyrrolidin-3-yl]-1,2-oxazole-3-carboxamide]	11.3 µM
C[C@@H]1CN(C2CCS(=O)(=O)CC2)C[C@@H]1NC(=O)c1cc(C2CC2)on1 (racemic) [compound 166, (±)-cis-5-cyclopropyl-N-(1-(1,1-dioxido-tetrahydro-2H-thiopyran-4-yl)-4-methylpyrrolidin-3-yl)isoxazole-3-carboxamide]	19.8 µM
C[C@H]1CN(CCC2CCN(C(=O)OC(C)(C)C)CC2)C[C@H]1NC(=O)c1cc(C2CC2)on1 (racemic) [compound 169, (±)-cis-tert-butyl 4-{2-[3-(5-cyclopropyl-1,2-oxazole-3-amido)-4-methylpyrrolidin-1-yl]ethyl}piperidine-1-carboxylate]	6.92 µM
C[C@@H]1CN(CC2CCOCC2)C[C@H]1NC(=O)c1cc(C2CC2)on1 (racemic) [compound 170, (±)-trans-5-cyclopropyl-N-[4-methyl-1-(oxan-4-ylmethyl)pyrrolidin-3-yl]-1,2-oxazole-3-carboxamide]	> 50 µM
C[C@@H]1CN(Cc2ccc(-c3cc(Cl)ccc3Cl)o2)C[C@H]1NC(=O)c1cc(C2CC2)on1 (racemic) [compound 171, (±)-trans-5-cyclopropyl-N-[1-{[5-(2,5-dichlorophenyl)furan-2-yl]methyl}-4-methylpyrrolidin-3-yl]-1,2-oxazole-3-carboxamide]	> 50 µM
C[C@@H]1CN(Cc2ccc(N3CCCC3)cc2)C[C@H]1NC(=O)c1cc(C2CC2)on1 (racemic) [compound 172, (±)-trans-5-cyclopropyl-N-[4-methyl-1-{[4-(pyrrolidin-1-yl)phenyl]methyl}pyrrolidin-3-yl]-1,2-oxazole-3-carboxamide]	29.5 µM
Cc1nc[nH]c1CN1C[C@@H](C)[C@H](NC(=O)c2cc(C3CC3)on2)C1 (racemic) [compound 173, (±)-trans-5-cyclopropyl-N-[4-methyl-1-[(4-methyl-1H-imidazol-5-yl)methyl]pyrrolidin-3-yl]-1,2-oxazole-3-carboxamide]	> 50 µM
COc1ncc(CN2C[C@@H](C)[C@H](NC(=O)c3cc(C4CC4)on3)C2)cc1Br (racemic) [compound 174, (±)-trans-N-[1-[(5-bromo-6-methoxypyridin-3-yl)methyl]-4-methylpyrrolidin-3-yl]-5-cyclopropyl-1,2-oxazole-3-carboxamide]	> 50 µM
C[C@H]1CN(CC2CCOCC2)C[C@H]1NC(=O)c1cc(C2CC2)on1 (racemic) [compound 175, (±)-cis-5-cyclopropyl-N-[4-methyl-1-(oxan-4-ylmethyl)pyrrolidin-3-yl]-1,2-oxazole-3-carboxamide]	3.95 µM
CC(C)[C@H]1CN(C)C[C@@H]1NC(=O)c1cc(C2CC2)on1 (racemic) [compound 177, (±)-trans-5-cyclopropyl-N-[1-methyl-4-(propan-2-yl)pyrrolidin-3-yl]-1,2-oxazole-3-carboxamide]	> 50 µM
CC(C)[C@H]1CN(C(C)C)C[C@@H]1NC(=O)c1cc(C2CC2)on1 (racemic) [compound 178, (±)-trans-N-[1,4-bis(propan-2-yl)pyrrolidin-3-yl]-5-cyclopropyl-1,2-oxazole-3-carboxamide]	> 50 µM
